Reference: ChEMBL document CHEMBL5727681, “Alkoxy compounds for disease treatment” (2020)

Test: In Vitro Isomerase Inhibition Assay: Isomerase inhibition reactions were performed essentially as described (Stecher et al., J Biol. Chem. 274:8577-85 (1999).

SMILES: NCCCc1cccc(OCC2CCCCC2)c1
- IC50: < 0.1 µM

SMILES: CCC(CC)COc1cccc(CCCN)c1
- IC50: < 0.1 µM

SMILES: NCCOc1cccc(OCC2CCCCCC2)c1
- IC50: < 0.1 µM

SMILES: NCCC(O)c1cccc(OCC2(O)CCCCC2)c1 (stereo unspecified)
- IC50: < 0.1 µM

SMILES: CCCC(CCC)COc1cccc(CCCN)c1
- IC50: < 0.1 µM

SMILES: NCCC(=O)c1cccc(OCC2CCCCCC2)c1
- IC50: < 0.1 µM

SMILES: NCCOc1cccc(OCC2CCCCC2)c1
- IC50: < 0.1 µM

SMILES: NCCCc1cccc(OCC2(O)CCCCC2)c1
- IC50: < 0.1 µM

SMILES: NCC(O)Cc1cccc(OCC2CCCCC2)c1 (stereo unspecified)
- IC50: < 0.1 µM

SMILES: CCCC(O)(CCC)COc1cccc(C(O)CCN)c1 (stereo unspecified)
- IC50: < 0.1 µM

SMILES: NCCC(=O)c1cccc(OCC2CCCCC2)c1
- IC50: < 0.1 µM
